ChEMBL document CHEMBL1201862, “PubChem BioAssay data set” (2004)
Blank lines part the entries; values can stand above or below the molecule they belong to. The source made the active and inactive calls.

Legend:
[1] = molecular target: T1, Eukaryotic translation initiation factor 2-alpha kinase 3 (Homo sapiens, UniProt Q9NZJ5); assay: Dose response cell-based high-throughput screening assay to measure PERK inhibition. [Related pubchem assays: 1416 ]; type: functional
[2] = molecular target: T1, Eukaryotic translation initiation factor 2-alpha kinase 3; assay: Counterscreen assay for PERK inhibitors: Dose response cell-based high throughput screening assay to measure inhibition of PERK at 6 hours. [Related pubchem assays: 1522, 1416 ]; type: functional
[3] = molecular target: T2, DNA repair and recombination protein RAD54-like (Homo sapiens, UniProt Q92698); assay: inhibitors of human RAD54 branch migration, confirmation, biochemical, fluorescence, cherry-picked samples, dose series (AID 651657); type: functional
T2 sequence (Q92698 whole entry): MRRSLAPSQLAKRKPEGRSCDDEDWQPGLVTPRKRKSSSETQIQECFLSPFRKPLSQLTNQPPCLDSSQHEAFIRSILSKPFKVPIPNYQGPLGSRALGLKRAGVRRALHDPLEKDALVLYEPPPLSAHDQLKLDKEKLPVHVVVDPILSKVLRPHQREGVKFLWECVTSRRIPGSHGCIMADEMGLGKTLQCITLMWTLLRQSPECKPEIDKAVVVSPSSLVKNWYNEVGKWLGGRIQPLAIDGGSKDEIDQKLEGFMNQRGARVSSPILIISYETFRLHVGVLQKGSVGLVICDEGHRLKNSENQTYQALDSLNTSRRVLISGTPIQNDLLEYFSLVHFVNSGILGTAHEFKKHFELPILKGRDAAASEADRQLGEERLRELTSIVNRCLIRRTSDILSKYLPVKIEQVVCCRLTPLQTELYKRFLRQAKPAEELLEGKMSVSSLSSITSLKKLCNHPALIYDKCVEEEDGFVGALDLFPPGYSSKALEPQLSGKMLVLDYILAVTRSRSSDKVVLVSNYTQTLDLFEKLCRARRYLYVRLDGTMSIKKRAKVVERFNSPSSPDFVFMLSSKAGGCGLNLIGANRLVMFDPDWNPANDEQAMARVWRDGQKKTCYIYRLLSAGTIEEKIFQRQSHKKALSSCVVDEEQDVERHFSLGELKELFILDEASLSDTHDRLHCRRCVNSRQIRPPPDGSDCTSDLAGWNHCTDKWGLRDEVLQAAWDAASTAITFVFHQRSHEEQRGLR

Cytochrome P450 2D6 = Cytochrome P450 2D6 (Homo sapiens, UniProt P10635);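 note: CYP2D6 member of a cytochrome P450 panel assay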
Chain of Cytochrome P450 2D6 (P10635 whole entry): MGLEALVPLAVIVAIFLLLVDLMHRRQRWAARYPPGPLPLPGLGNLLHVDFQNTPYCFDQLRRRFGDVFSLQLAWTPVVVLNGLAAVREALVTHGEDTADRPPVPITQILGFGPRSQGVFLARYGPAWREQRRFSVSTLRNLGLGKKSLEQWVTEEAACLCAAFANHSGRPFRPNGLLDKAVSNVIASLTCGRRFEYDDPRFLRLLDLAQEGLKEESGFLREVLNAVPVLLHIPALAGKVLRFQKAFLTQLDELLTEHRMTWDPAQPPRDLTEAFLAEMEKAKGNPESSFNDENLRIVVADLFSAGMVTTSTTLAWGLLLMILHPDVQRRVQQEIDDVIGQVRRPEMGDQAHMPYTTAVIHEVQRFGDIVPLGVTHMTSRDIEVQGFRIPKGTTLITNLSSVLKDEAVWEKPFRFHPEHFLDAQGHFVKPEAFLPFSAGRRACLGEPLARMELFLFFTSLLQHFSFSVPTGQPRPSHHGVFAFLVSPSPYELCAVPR

Aminopeptidase N = molecular target: T3, Aminopeptidase N (Plasmodium falciparum FcB1/Columbia, UniProt O96935); assay: P. falciparum M1AAP inhibitors, biochemical, fluorogenic H-Leu-NHMec substrate, 1536-well (AID 1445); set-up: species or system Plasmodium falciparum 3D7, 3D7
T3 sequence (O96935 whole entry): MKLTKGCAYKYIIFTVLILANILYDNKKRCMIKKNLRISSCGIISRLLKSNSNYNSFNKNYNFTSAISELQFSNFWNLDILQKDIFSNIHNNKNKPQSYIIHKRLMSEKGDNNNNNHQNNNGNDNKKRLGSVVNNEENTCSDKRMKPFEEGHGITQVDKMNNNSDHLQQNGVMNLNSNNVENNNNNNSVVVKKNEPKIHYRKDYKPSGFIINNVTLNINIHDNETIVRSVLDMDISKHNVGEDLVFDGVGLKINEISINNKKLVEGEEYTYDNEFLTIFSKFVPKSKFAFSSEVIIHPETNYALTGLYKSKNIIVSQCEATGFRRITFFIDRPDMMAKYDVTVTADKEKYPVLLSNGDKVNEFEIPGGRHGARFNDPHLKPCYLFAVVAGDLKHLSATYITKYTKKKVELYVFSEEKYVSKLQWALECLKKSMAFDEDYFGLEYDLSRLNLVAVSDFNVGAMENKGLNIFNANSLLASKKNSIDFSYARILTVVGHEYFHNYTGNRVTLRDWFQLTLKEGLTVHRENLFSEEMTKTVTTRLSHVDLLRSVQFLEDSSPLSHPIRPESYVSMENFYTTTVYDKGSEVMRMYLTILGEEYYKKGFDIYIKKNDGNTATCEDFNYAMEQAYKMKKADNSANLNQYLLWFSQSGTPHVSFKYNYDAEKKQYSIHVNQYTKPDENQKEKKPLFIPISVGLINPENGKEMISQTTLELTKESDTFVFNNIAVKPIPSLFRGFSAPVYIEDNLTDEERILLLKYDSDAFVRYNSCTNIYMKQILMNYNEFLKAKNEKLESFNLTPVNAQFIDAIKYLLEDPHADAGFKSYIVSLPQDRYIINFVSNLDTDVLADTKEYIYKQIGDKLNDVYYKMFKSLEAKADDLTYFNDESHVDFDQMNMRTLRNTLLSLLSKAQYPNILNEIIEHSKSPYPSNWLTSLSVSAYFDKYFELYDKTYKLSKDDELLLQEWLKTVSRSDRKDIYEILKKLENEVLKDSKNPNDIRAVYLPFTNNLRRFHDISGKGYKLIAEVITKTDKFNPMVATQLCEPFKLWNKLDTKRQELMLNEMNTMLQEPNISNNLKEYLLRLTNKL

Cytochrome P450 1A2 = molecular target: T4, Cytochrome P450 1A2 (Homo sapiens, UniProt P05177);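 note: PubChem cytochrome P450 panel assay, CYP1A2 panel member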
T4 sequence (P05177 whole entry): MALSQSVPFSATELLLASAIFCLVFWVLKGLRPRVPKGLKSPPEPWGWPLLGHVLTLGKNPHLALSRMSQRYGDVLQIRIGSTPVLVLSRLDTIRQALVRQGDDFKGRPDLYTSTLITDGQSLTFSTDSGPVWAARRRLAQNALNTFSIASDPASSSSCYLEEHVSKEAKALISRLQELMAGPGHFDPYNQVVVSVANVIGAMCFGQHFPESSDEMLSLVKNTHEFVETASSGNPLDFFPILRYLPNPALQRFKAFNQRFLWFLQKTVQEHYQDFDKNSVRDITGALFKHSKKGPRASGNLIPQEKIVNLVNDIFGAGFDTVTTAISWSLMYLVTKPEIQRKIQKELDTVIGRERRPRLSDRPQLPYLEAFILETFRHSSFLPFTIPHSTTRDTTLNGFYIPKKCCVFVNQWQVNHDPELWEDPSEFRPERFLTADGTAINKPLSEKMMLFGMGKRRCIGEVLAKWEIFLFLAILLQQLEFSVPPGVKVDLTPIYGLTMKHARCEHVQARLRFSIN

[4] = molecular target: Lysosomal acid glucosylceramidase (Homo sapiens, UniProt P04062); assay: Dose response cell-based high throughput screening assay to identify enhancers of beta-glucosidase activity. [Related pubchem assays: 784 ]; type: functional
[5] = molecular target: T5, Voltage-gated N-type calcium channel alpha-1B subunit/Amyloid beta A4 precursor protein-binding family A member 1 (Homo sapiens, UniProt Q00975+Q02410); assay: disruptors of Mint-PDZ/N-type channel peptide interaction – biochemical, HTRF, set 2, SAR follow-up (AID 434980); type: functional
T5 sequence (Q00975 whole entry): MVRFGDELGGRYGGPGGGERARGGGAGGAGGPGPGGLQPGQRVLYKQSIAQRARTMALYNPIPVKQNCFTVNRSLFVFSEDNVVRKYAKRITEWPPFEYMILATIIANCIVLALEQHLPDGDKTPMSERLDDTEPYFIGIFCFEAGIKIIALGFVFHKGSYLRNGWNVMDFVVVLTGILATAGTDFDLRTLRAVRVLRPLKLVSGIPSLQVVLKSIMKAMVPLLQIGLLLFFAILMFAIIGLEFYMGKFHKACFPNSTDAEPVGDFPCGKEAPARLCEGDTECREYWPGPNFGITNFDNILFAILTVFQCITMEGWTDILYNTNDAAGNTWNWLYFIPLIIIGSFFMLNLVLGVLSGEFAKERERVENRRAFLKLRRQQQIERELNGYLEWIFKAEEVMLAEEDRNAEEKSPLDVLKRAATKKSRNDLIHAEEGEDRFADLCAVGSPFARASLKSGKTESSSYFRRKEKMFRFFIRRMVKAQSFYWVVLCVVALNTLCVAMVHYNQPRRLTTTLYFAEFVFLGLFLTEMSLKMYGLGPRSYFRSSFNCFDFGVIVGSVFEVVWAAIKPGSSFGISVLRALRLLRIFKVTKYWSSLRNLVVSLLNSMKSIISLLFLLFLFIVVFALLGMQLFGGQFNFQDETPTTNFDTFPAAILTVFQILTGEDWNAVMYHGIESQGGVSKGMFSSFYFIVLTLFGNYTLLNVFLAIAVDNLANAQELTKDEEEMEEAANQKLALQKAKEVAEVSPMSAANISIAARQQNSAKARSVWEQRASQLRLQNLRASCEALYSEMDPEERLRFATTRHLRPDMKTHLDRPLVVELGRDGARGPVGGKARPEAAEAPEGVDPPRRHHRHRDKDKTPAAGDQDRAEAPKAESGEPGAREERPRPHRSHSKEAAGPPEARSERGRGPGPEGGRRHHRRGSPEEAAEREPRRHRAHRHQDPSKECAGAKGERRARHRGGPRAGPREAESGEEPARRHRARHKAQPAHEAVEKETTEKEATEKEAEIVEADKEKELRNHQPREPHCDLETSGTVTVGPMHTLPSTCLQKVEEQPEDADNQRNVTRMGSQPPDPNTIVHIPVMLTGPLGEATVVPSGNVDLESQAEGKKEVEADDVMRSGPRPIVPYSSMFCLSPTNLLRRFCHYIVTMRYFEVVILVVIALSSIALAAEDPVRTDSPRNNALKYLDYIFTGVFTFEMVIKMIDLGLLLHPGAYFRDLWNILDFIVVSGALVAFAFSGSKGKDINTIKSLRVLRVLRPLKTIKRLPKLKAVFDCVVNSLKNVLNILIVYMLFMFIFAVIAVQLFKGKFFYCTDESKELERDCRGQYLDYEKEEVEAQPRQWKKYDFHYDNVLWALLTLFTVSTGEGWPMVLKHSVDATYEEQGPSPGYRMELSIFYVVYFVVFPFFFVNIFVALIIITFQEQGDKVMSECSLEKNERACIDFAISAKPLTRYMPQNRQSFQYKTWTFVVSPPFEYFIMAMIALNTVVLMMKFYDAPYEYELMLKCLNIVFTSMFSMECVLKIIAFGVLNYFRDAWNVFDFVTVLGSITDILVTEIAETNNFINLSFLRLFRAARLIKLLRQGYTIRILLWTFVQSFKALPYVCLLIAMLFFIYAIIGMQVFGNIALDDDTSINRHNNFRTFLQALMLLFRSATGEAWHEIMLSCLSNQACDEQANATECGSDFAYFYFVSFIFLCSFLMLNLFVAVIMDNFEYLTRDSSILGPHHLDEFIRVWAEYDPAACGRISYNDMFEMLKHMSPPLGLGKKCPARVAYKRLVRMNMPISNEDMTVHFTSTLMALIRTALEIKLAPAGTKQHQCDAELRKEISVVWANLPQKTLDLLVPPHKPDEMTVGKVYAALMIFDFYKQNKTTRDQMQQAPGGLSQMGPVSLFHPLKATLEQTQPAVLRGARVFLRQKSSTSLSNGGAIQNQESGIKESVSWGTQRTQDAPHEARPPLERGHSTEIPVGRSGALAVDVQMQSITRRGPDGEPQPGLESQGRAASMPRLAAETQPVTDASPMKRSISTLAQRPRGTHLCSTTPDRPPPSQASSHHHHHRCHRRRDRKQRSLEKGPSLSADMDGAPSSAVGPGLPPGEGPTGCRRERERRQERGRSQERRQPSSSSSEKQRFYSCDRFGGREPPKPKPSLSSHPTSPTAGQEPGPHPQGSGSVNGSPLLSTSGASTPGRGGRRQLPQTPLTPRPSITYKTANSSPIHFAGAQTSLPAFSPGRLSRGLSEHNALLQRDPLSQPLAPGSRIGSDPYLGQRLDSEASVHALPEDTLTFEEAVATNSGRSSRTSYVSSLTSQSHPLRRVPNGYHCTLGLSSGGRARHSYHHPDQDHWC
T5 sequence (Q02410 whole entry): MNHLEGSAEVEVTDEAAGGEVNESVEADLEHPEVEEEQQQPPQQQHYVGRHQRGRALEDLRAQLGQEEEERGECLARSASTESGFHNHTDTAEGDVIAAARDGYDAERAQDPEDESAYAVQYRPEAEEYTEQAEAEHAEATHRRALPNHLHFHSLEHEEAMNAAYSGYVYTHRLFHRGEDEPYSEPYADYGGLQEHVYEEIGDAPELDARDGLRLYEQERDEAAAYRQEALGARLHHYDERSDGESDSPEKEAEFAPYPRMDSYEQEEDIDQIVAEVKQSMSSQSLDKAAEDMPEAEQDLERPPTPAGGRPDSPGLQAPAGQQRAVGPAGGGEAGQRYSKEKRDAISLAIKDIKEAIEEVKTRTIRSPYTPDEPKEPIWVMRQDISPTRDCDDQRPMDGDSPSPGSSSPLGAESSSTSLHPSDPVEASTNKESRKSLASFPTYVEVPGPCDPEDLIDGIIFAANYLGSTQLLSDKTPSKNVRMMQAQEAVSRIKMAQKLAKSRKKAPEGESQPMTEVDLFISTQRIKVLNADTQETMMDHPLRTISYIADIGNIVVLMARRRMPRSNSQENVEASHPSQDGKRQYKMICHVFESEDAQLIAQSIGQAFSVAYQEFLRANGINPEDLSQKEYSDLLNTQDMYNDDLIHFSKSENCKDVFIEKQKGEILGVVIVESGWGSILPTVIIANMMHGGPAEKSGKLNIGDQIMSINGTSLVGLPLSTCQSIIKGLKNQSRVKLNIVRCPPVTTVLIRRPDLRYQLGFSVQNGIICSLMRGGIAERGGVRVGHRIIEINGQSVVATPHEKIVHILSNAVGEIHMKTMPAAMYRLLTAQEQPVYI

[6] = molecular target: T5, Voltage-gated N-type calcium channel alpha-1B subunit/Amyloid beta A4 precursor protein-binding family A member 1; assay: disruptors of Mint-PDZ/N-type channel peptide interaction – biochemical, HTRF, SAR follow-up (AID 2489); type: functional

T1 sequence (Q9NZJ5 whole entry): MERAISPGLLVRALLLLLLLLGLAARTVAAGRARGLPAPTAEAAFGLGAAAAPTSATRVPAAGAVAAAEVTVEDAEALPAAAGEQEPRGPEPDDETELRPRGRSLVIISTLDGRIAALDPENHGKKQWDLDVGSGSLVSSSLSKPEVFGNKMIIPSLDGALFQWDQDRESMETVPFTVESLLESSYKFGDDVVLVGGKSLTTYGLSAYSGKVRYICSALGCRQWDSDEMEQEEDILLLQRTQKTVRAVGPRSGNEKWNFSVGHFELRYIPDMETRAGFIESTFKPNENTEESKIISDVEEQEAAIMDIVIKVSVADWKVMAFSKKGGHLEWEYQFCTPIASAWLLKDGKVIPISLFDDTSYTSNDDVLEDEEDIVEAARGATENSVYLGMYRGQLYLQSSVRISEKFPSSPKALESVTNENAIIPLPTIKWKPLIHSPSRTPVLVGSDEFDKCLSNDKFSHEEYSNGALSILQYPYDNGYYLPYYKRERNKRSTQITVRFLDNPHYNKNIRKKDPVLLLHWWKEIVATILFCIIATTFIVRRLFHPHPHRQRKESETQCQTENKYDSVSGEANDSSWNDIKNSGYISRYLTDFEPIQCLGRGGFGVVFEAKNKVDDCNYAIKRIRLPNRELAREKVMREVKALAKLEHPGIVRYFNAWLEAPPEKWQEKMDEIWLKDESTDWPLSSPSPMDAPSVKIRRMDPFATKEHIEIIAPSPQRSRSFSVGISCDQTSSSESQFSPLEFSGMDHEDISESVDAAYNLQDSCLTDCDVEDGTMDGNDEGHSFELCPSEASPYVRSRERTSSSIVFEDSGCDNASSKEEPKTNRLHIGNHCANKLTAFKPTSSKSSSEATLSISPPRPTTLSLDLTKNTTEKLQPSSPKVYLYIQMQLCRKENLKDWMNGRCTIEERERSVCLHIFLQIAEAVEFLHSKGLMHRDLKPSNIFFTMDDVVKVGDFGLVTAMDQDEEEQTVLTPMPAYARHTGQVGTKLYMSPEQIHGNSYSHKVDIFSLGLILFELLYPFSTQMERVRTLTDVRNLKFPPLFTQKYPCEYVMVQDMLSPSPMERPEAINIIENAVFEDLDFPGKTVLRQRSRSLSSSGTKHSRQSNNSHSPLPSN

EC50 [1]: > 55.7 µM (not active) | EC50 [2]: > 55.7 µM (not active)
SMILES: O=C(O)c1ccc(-c2nc(-c3ccccc3)c(-c3cccs3)[nH]2)cc1

AC50 [3]: 26.5 µM (active) | AC50 (Cytochrome P450 2D6): 1.41 µM (inconclusive) | IC50 (Aminopeptidase N): 107 µM (active) | AC50 (Cytochrome P450 1A2): 31.6 µM (inconclusive) | EC50 [4]: 15.9 µM (not active)
SMILES: CCN1CCN(CCCNC(=O)c2cc3cc4ccc(OC)cc4nc3o2)CC1

IC50 [5]: > 56.8 µM (inactive) | IC50 [6]: 29.2 µM (active)
SMILES: O=C(NCCc1cccnc1)c1cc(-c2ccco2)nc2ccccc12
